Values after ≈ are worked out from the molar mass of the structure shown.
How the values were obtained:
PC-3 (prostate cancer) = test: Solid tumor cell growth inhibition, MTT, 72 h (Example 7); type: cell-based, human; conditions: Homo sapiens; 72 h, MTT, PC-3
How it was run: (§1)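 Each line is plated at 4000 cells per well in high-glucose DMEM supplemented with 10% FBS. After 24 h settling, derivatives at several concentrations are mixed in and cultured 72 h; MTT then gives viable cells, with untreated wells set to 100%.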

MG63 (osteosarcoma) = test: as above; type: cell-based, human; conditions: Homo sapiens; 72 h, MTT, MG-63
How it was run: as §1

[1] = tested on: PANC-1 (pancreatic cancer); test: as above; type: cell-based, human; conditions: Homo sapiens; 72 h, MTT, PANC-1
How it was run: as §1

[2] = tested on: CaES-17 (esophageal cancer cell); test: as above; type: cell-based, human; conditions: Homo sapiens, CaEs17; 72 h, MTT, CAES-17
How it was run: as §1

[3] = tested on: RPMI8226 (multiple myeloma); test: Multiple myeloma cell growth inhibition, MTT, 72 h (Example 6); type: cell-based, human; conditions: Homo sapiens, RPMI-8226; 72 h, MTT, RPMI8226
How it was run: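 Viability was read by MTT after 72 h of compound exposure at 37 °C, 5% CO2. Each well held 6000 RPMI8226 cells in 1640 medium containing 10% fetal bovine serum, with derivatives added at various concentrations.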

[4] = tested on: RKO (human colon adenocarcinoma cell); test: Solid tumor cell growth inhibition, MTT, 72 h (Example 7); type: cell-based; conditions: Homo sapiens; 72 h, MTT, RKO
How it was run: as §1

[5] = tested on: Huh7 (human liver cancer cell); test: as above; type: cell-based; conditions: Homo sapiens; 72 h, MTT, Huh-7
How it was run: as §1

[6] = tested on: Becap37 (human breast cancer cell); test: as above; type: cell-based; conditions: Homo sapiens; 72 h, MTT, Becap-37
How it was run: as §1

[7] = tested on: MGC 803 (human gastric cancer cell); test: as above; type: cell-based; conditions: Homo sapiens
How it was run: as §1

A549 (human lung cancer) = test: as above; type: cell-based; conditions: Homo sapiens; 72 h, MTT, A549
How it was run: as §1

[8] = tested on: H9 (acute lymphoblastic leukemia, ALL); test: Leukemia cell growth inhibition, MTT, 72 h (Example 5); type: cell-based, human; conditions: Homo sapiens; 72 h, MTT
How it was run: (§2)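 Seed 6000 leukemia cells per well in 1640 medium containing 10% FBS. Add test compounds at different concentrations, mix, incubate 72 hours at 37° C in 5% CO2. Determine viable cells by MTT.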

[9] = tested on: NB4 (acute promyelocytic leukemia, AML); test: as above; type: cell-based, human; conditions: Homo sapiens; 72 h, MTT
How it was run: as §2

[10] = tested on: Jurkat (acute lymphoblastic leukemia, ALL); test: as above; type: cell-based, human; conditions: Homo sapiens, Jurkat; 72 h, MTT
How it was run: as §2

[11] = tested on: Kasumi-1 (acute myeloid leukemia M2 type, AML-M2); test: as above; type: cell-based, human; conditions: Homo sapiens, Kasumi 1
How it was run: as §2

[12] = tested on: K562/adr (drug-resistant, chronic myeloid leukemia, CML); test: as above; type: cell-based, human; conditions: Homo sapiens, K562/Adr; 72 h, MTT
How it was run: as §2

Row | Structure (SMILES) | IC50 (PC-3 (prostate cancer)) [µg/mL] | IC90 (PC-3 (prostate cancer)) [µg/mL] | IC50 (MG63 (osteosarcoma)) [µg/mL] | IC90 (MG63 (osteosarcoma)) [µg/mL] | IC50 [1] [µg/mL] | IC90 [1] [µg/mL] | IC50 [2] [µg/mL] | IC90 [2] [µg/mL] | IC50 [3] [µg/mL] | IC90 [3] [µg/mL] | IC50 [4] [µg/mL] | IC90 [4] [µg/mL] | IC50 [5] [µg/mL] | IC90 [5] [µg/mL] | IC50 [6] [µg/mL] | IC90 [6] [µg/mL] | IC50 [7] [µg/mL] | IC90 [7] [µg/mL] | IC50 (A549 (human lung cancer)) [µg/mL] | IC90 (A549 (human lung cancer)) [µg/mL] | further results
1 | COc1ccc2cc1Oc1ccc(cc1)C[C@H]1c3cc(c(OC)cc3CCN1C)Oc1c(OC)c(OC)c(CNCC(C)O)c3c1[C@H](C2)N(C)CC3 (stereo partly drawn) [BS-TE-315] | 6.41 (≈ 9.03 µM) | 8 (≈ 11.3 µM) | 1.41 (≈ 1.99 µM) | 3.11 (≈ 4.38 µM) | 5.89 (≈ 8.3 µM) | 14.7 (≈ 20.7 µM) | 2.4 (≈ 3.38 µM) | 20.8 (≈ 29.4 µM) | 0.3 (≈ 0.423 µM) | 2.07 (≈ 2.92 µM) | 1.64 (≈ 2.31 µM) | 3.39 (≈ 4.78 µM) | 3.07 (≈ 4.32 µM) | 4.98 (≈ 7.02 µM) | 2.95 (≈ 4.16 µM) | 9.79 (≈ 13.8 µM) | 3.63 (≈ 5.11 µM) | 10.5 (≈ 14.7 µM) | 1.96 (≈ 2.76 µM) | 9.36 (≈ 13.2 µM) | IC50 [8]: 2.6 µg/mL (≈ 3.66 µM); IC90 [8]: 4.83 µg/mL (≈ 6.8 µM); IC50 [9]: 1.63 µg/mL (≈ 2.3 µM); IC90 [9]: 5.66 µg/mL (≈ 7.97 µM); IC50 [10]: 4.53 µg/mL (≈ 6.38 µM); IC90 [10]: 11 µg/mL (≈ 15.6 µM); IC50 [11]: 1.99 µg/mL (≈ 2.8 µM); IC90 [11]: 7.72 µg/mL (≈ 10.9 µM); IC50 [12]: 4.78 µg/mL (≈ 6.73 µM); IC90 [12]: 10.4 µg/mL (≈ 14.7 µM)
2 | COc1ccc2cc1Oc1ccc(cc1)C[C@H]1c3cc(c(OC)cc3CCN1C)Oc1c(OC)c(OC)c(CN3CCC(O)C3)c3c1[C@H](C2)N(C)CC3 (stereo partly drawn) [BS-TE-322] | 2.26 (≈ 3.13 µM) | 4.06 (≈ 5.62 µM) | 1 (≈ 1.39 µM) | 2.24 (≈ 3.1 µM) | 3.29 (≈ 4.56 µM) | 5.41 (≈ 7.49 µM) | 1.58 (≈ 2.19 µM) | 9.61 (≈ 13.3 µM) | 0.14 (≈ 0.194 µM) | 0.7 (≈ 0.97 µM) | 0.9 (≈ 1.25 µM) | 2.4 (≈ 3.32 µM) | 1.42 (≈ 1.97 µM) | 1.94 (≈ 2.69 µM) | 2.31 (≈ 3.2 µM) | 4 (≈ 5.54 µM) | 2.29 (≈ 3.17 µM) | > 10 | 1.83 (≈ 2.53 µM) | 6.34 (≈ 8.78 µM) | IC50 [8]: 1.08 µg/mL (≈ 1.5 µM); IC90 [8]: 2.19 µg/mL (≈ 3.03 µM); IC50 [9]: 0.83 µg/mL (≈ 1.15 µM); IC90 [9]: 3.48 µg/mL (≈ 4.82 µM); IC50 [10]: 1.67 µg/mL (≈ 2.31 µM); IC90 [10]: 3.97 µg/mL (≈ 5.5 µM); IC50 [11]: 1.22 µg/mL (≈ 1.69 µM); IC90 [11]: 3.83 µg/mL (≈ 5.31 µM); IC50 [12]: 1.1 µg/mL (≈ 1.52 µM); IC90 [12]: 3.24 µg/mL (≈ 4.49 µM)
3 | COc1ccc2cc1Oc1ccc(cc1)C[C@H]1c3cc(c(OC)cc3CCN1C)Oc1c(OC)c(OC)c(COC(C)=O)c3c1[C@H](C2)N(C)CC3 [BS-TE-223] | 5.6 (≈ 8.06 µM) | 28 (≈ 40.3 µM) | 5.13 (≈ 7.38 µM) | 7.64 (≈ 11 µM) | 10.7 (≈ 15.4 µM) | 16 (≈ 23 µM) | 9.8 (≈ 14.1 µM) | 37.5 (≈ 54 µM) | 0.23 (≈ 0.331 µM) | 2.29 (≈ 3.3 µM) | 4.23 (≈ 6.09 µM) | 7.5 (≈ 10.8 µM) | 4.14 (≈ 5.96 µM) | 7.97 (≈ 11.5 µM) | 6.77 (≈ 9.74 µM) | 15 (≈ 21.6 µM) | 3.54 (≈ 5.09 µM) | 38.1 (≈ 54.8 µM) | 4.45 (≈ 6.4 µM) | 14.2 (≈ 20.4 µM) | IC50 [8]: 4.19 µg/mL (≈ 6.03 µM); IC90 [8]: 8.89 µg/mL (≈ 12.8 µM); IC50 [9]: 2.57 µg/mL (≈ 3.7 µM); IC90 [9]: 7.42 µg/mL (≈ 10.7 µM); IC50 [10]: 3.42 µg/mL (≈ 4.92 µM); IC90 [10]: 11.3 µg/mL (≈ 16.2 µM); IC50 [11]: 2 µg/mL (≈ 2.88 µM); IC90 [11]: 8 µg/mL (≈ 11.5 µM); IC50 [12]: 0.5 µg/mL (≈ 0.72 µM); IC90 [12]: 9.91 µg/mL (≈ 14.3 µM)
4 | COc1ccc2cc1Oc1ccc(cc1)C[C@H]1c3cc(c(OC)cc3CCN1C)Oc1c(OC)c(OC)c(CN3CCOCC3)c3c1[C@H](C2)N(C)CC3 [BS-TE-307] | 2.88 (≈ 3.99 µM) | 6.99 (≈ 9.68 µM) | 0.82 (≈ 1.14 µM) | 2.32 (≈ 3.21 µM) | 3.47 (≈ 4.81 µM) | 8.88 (≈ 12.3 µM) | 1.1 (≈ 1.52 µM) | 18.8 (≈ 26.1 µM) | 0.07 (≈ 0.097 µM) | 0.42 (≈ 0.582 µM) | 0.95 (≈ 1.32 µM) | 3.27 (≈ 4.53 µM) | 3 (≈ 4.16 µM) | 4.9 (≈ 6.79 µM) | 1.79 (≈ 2.48 µM) | 6.94 (≈ 9.61 µM) | 3.74 (≈ 5.18 µM) | 14.1 (≈ 19.6 µM) | 2.3 (≈ 3.19 µM) | 8 (≈ 11.1 µM) | IC50 [8]: 0.87 µg/mL (≈ 1.21 µM); IC90 [8]: 1.99 µg/mL (≈ 2.76 µM); IC50 [9]: 0.73 µg/mL (≈ 1.01 µM); IC90 [9]: 4.35 µg/mL (≈ 6.03 µM); IC50 [10]: 3.08 µg/mL (≈ 4.27 µM); IC90 [10]: 13.2 µg/mL (≈ 18.4 µM); IC50 [11]: 1 µg/mL (≈ 1.39 µM); IC90 [11]: 4.79 µg/mL (≈ 6.64 µM); IC50 [12]: 0.25 µg/mL (≈ 0.346 µM); IC90 [12]: 7.8 µg/mL (≈ 10.8 µM)

Reference: patent US9133207B2, “Tetrandrine derivatives with substituted 5-carbon, preparation method and use thereof” (Hangzhou Bensheng Pharmaceutical Co., Ltd., priority 2011, dated 2015)
